The values that follow come from patent publication US20220096597A1, “CARDIO-PROTECTIVE EFFECT OF VASOCONSTRICTION-INHIBITING FACTOR (VIF)” (Rheinisch-Westfälische Technische Hochschule Aachen (RWTH), priority 2019, published 2022).

The test system of the series is C57BL/6N mice with induced myocardial infarction. In words: Histology and immunohistochemistry of hearts after induced infarction. Format: in vivo. The following applies: infarcted mouse heart, up to 28 days; FIG. 6A and 6C. As to the method:
To further study the newly identified effects of VIF (according to SEQ ID NO: 1), and especially in vivo, 8 to 10 week old wild type male C57BL/6N mice (Charles River, Germany) were intubated under anesthesia (100 mg/kg ketamine, 10 mg/kg xylazine, i.p.) and analgesia (0.1 mg/kg buprenorphine). The mice were ventilated with positive pressure and oxygenation using a rodent respirator (Harvard Apparatus, Germany). […]
A Gömöri trichrome staining was performed to determine the infarct size. Subsequently, three slices per mouse from 3 to 5 different mice were analyzed using ImageJ. after one of anti-SMA antibody (smooth muscle actin, DAKO, FIG. 6D), anti-MAC3 antibody (BD Pharmingen, FIG. 6B), anti-MPO antibody (Neomarkers, FIG. 6A) and anti-CD31 antibody (Santa Cruz Biotechnology, FIG. 6E) staining, followed by staining with fluorescein isothiocyanate (FITC)—or a Cy3-conjugated secondary antibody (DAKO, Germany). Positively stained cells or double-positive stained cells (FIG. 6C for anti-MAC3/MPO) were counted in three different fields per slice and expressed as cells per field of view (200× magnification).

Ends that are not written are not given here.

Turning to “HSGFEDELSEVLENQSSQAELKEAVEEPSSKDVME [VIF]”, the “infiltration of neutrophils (anti-MPO) compared to non-treated controls” value is recorded as “does not lead to an increased infiltration of neutrophils”.
